Data as given in patent US12371428B2 (Exelixis, Inc., priority 2019, dated 2025).
Like-named read-outs stand apart in the source and are kept apart here.

Columns and labels:
Format in all cases: cell-based
[1] = target: AXL (phospho-AXL, Gas6-stimulated A-172 glioblastoma cells) (Homo sapiens (Human), UniProt P30530); test: AXL autophosphorylation ELISA in A-172 cells (Example E); conditions: cellular activity, read-out: Axl IC50
Description: A-172 cells were incubated at 37° C., 5% CO2 for 24 h and then starved for 24 h in serum-free medium. Test compounds were serially diluted to produce an 8-point dose curve in fresh serum-free medium to a final concentration of 0.3% DMSO (vehicle) and added to the cells and incubated for 1 h. […] Lysates were collected and 100 μL/well added into the human phospho-AXL DuoSet IC ELISA (R&D Systems #DYC2228-2). […] Positive control wells (100% activity) contained Gas6-stimulated, DMSO-treated cell lysates. Negative control wells (0% activity) contained Gas6-stimulated, reference inhibitor-treated cell lysates. IC50 values were calculated by nonlinear regression analysis using a 4-parameter logistic curve fit in ActivityBase XE (IDBS).

[2] = target: Met (phospho-Met, HGF-stimulated PC-3 prostate cancer cells) (Homo sapiens (Human), UniProt P08581); test: Met autophosphorylation ELISA in PC-3 cells (Example F); conditions: cellular activity, read-out: c-Met IC50
Chain of Met (phospho-Met, HGF-stimulated PC-3 prostate cancer cells) (P08581 25-1390): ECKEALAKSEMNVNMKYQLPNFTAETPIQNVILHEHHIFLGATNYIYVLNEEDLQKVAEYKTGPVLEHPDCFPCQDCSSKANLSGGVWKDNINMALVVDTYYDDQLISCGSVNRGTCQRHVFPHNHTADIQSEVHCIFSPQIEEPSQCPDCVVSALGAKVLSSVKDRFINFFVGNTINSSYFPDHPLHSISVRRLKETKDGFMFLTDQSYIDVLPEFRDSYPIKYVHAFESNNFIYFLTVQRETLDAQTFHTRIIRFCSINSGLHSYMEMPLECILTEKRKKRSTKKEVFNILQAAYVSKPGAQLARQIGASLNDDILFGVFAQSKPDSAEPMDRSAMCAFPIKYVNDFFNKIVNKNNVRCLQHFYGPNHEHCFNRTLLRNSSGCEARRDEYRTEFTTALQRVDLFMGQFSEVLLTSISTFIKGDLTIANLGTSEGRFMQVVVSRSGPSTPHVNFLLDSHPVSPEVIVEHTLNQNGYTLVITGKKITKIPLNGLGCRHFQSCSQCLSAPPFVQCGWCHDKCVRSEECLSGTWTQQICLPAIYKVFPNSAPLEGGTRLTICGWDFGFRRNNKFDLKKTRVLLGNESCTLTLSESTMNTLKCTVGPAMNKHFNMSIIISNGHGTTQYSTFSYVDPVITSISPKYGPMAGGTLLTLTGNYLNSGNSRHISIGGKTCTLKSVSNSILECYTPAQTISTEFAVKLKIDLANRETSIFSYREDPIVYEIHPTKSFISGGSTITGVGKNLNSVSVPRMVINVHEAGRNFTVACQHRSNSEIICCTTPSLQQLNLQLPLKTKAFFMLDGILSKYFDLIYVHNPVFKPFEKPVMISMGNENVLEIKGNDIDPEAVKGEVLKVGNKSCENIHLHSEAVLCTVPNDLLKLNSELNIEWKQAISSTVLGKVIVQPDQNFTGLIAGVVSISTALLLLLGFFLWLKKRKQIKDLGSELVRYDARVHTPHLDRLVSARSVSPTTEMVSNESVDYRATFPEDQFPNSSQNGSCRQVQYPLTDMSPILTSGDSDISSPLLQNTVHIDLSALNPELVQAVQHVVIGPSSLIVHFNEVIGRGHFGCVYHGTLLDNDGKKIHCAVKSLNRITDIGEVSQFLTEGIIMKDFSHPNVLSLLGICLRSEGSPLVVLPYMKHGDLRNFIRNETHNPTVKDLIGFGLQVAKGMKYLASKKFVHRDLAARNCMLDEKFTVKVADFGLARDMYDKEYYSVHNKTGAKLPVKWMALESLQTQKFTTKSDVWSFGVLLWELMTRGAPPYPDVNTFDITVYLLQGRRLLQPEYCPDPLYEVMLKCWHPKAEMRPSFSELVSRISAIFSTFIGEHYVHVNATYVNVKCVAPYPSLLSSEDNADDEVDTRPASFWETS
Procedure, shortened: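 PC-3 cells, serum-starved 3 h, were treated with compounds (8-point dose curve, 0.3% DMSO final) for 1 h, then stimulated with 100 ng/mL recombinant human HGF for 10 min. Lysate phospho-Met (panTyr) was quantified by sandwich ELISA; IC50 from 4-parameter logistic fit.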

[3] = target: Mer (phospho-Mer, MERTK-transfected 293A cells) (Homo sapiens (Human), UniProt Q12866); test: Mer autophosphorylation ELISA in transient transfected 293A cells (Example H); conditions: cellular activity
Chain of Mer (phospho-Mer, MERTK-transfected 293A cells) (Q12866 21-999): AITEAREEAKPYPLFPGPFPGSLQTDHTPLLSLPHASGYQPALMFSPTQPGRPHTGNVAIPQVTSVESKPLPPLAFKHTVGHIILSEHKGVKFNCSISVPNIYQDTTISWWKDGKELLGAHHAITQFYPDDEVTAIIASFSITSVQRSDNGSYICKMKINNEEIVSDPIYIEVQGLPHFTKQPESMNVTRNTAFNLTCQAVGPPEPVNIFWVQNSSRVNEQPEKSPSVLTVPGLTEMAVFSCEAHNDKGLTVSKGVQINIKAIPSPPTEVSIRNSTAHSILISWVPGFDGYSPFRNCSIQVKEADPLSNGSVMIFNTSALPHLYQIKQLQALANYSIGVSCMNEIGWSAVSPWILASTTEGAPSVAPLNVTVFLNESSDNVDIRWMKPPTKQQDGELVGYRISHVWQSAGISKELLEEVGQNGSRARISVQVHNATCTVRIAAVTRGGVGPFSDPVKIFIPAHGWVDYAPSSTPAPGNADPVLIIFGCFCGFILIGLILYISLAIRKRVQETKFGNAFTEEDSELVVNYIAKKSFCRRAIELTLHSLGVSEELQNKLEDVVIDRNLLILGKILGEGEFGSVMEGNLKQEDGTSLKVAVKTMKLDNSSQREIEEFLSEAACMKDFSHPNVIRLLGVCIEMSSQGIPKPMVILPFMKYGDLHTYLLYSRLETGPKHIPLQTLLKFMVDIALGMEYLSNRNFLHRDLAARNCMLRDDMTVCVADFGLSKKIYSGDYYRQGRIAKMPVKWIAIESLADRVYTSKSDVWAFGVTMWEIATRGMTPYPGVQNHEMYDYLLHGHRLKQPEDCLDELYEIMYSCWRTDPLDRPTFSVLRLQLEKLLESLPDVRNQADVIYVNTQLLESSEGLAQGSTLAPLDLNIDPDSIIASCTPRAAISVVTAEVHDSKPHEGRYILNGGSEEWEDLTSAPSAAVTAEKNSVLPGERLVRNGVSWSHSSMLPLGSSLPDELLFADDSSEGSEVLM
Procedure, shortened: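 Inhibition of cellular Mer autophosphorylation is determined in 293A cells transiently expressing human MERTK after 1 h compound exposure (8 concentrations, serum-free, 0.3% DMSO). Phospho-Mer in clarified lysates is measured by ELISA, with DMSO and reference-inhibitor wells defining the 100% and 0% activity limits.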

[4] = AXL autophosphorylation ELISA in A-172 cells
[5] = Met autophosphorylation ELISA in PC-3 cells
[6] = Mer autophosphorylation ELISA in transient transfected 293A cells

Chain of AXL (phospho-AXL, Gas6-stimulated A-172 glioblastoma cells) (P30530 26-894): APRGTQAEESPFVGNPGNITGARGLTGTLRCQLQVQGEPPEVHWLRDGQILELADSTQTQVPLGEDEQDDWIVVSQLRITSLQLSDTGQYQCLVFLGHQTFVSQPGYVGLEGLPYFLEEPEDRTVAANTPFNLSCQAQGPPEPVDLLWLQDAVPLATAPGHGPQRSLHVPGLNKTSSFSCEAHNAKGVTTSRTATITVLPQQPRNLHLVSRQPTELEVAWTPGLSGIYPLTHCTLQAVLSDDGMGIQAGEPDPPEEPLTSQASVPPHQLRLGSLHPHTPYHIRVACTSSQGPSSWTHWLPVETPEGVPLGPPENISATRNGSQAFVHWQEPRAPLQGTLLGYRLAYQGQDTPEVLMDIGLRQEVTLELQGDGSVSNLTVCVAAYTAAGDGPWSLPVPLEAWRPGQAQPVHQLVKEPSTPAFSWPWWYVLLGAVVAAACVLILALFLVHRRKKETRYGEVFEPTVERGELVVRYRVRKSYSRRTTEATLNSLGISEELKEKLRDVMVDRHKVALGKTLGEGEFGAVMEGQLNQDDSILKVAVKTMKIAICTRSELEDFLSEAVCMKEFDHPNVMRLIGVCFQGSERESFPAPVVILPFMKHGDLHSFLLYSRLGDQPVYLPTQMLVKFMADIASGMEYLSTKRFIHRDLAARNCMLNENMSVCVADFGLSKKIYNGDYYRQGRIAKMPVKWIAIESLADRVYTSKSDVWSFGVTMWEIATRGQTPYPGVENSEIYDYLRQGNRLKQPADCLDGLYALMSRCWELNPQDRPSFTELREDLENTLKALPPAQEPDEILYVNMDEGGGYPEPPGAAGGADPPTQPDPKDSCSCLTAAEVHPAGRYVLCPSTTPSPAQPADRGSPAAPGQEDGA

Compound	IC50 [1, 4]	IC50 [2, 5]	IC50 [3, 6]	IC50 ([1]; A-172 cells)	IC50 ([2]; PC-3 cells)	IC50 ([3]; transfected 293A cells)
COCc1c(C(=O)Nc2ccc(Oc3ccnc4cc(OC)c(OC)nc34)c(F)c2)c(=O)c(-c2ccc(F)cc2)c(C)n1C [Compound 336, N-[4-[(6,7-dimethoxy-1,5-naphthyridin-4-yl)oxy]-3-fluorophenyl]-5-(4-fluorophenyl)-2-(methoxymethyl)-1,6-dimethyl-4-oxopyridine-3-carboxamide]	< 100 nM	< 100 nM	< 100 nM	–	–	–
CNC(=O)c1cc2c(Oc3ccc(NC(=O)c4cnc(C)c(-c5ccc(F)cc5)c4O)cc3)ccnc2cn1 [Compound 398, 4-[4-[[5-(4-fluorophenyl)-4-hydroxy-6-methylpyridine-3-carbonyl]amino]phenoxy]-N-methyl-1,7-naphthyridine-6-carboxamide]	< 100 nM	< 100 nM	< 100 nM	–	–	–
COc1cc2nccc(Oc3ccc(NC(=O)c4cc(F)c(C)n(-c5ccc(F)cc5)c4=O)cc3F)c2nc1OC [Compound 337, N-[4-[(6,7-dimethoxy-1,5-naphthyridin-4-yl)oxy]-3-fluorophenyl]-5-fluoro-1-(4-fluorophenyl)-6-methyl-2-oxopyridine-3-carboxamide]	< 100 nM	< 100 nM	< 100 nM	–	–	–
COc1cc2nccc(Oc3ccc(NC(=O)c4c(C)nc(C)c(-c5ccc(F)cc5F)c4O)cc3F)c2nc1OC [Compound 209, 5-(2,4-Difluorophenyl)-N-[4-[(6,7-dimethoxy-1,5-naphthyridin-4-yl)oxy]-3-fluorophenyl]-4-hydroxy-2,6-dimethylpyridine-3-carboxamide]	< 100 nM	< 100 nM	< 100 nM	–	–	–
COCc1nc(C)c(-c2ccc(F)cc2F)c(O)c1C(=O)Nc1ccc(Oc2ccnc3cc(OC)c(OC)nc23)c(F)c1 [Compound 212, 5-(2,4-Difluorophenyl)-N-[4-[(6,7-dimethoxy-1,5-naphthyridin-4-yl)oxy]-3-fluorophenyl]-4-hydroxy-2-(methoxymethyl)-6-methylpyridine-3-carboxamide]	< 100 nM	< 100 nM	< 100 nM	–	–	–
COc1cnc2c(Oc3ccc(NC(=O)c4cn(CCF)c(C)c(-c5ccc(F)cc5C)c4=O)cc3)ccnc2c1 [Compound 798, 1-(2-fluoroethyl)-5-(4-fluoro-2-methylphenyl)-N-[4-[(7-methoxy-1,5-naphthyridin-4-yl)oxy]phenyl]-6-methyl-4-oxopyridine-3-carboxamide]	< 100 nM	< 100 nM	< 100 nM	–	–	–
COc1cnc2c(Oc3ccc(NC(=O)c4cn(CC(F)F)c(C)c(-c5ccc(F)cc5)c4=O)cc3F)ccnc2c1 [Compound 625, 1-(2,2-Difluoroethyl)-N-[3-fluoro-4-[(7-methoxy-1,5-naphthyridin-4-yl)oxy]phenyl]-5-(4-fluorophenyl)-6-methyl-4-oxopyridine-3-carboxamide]	< 100 nM	< 100 nM	< 100 nM	–	–	–
CCOCc1nc(C)c(-c2ccc(F)cc2)c(O)c1C(=O)Nc1ccc(Oc2ccnc3cc(OC)c(OC)nc23)c(F)c1 [Compound 213, N-[4-[(6,7-Dimethoxy-1,5-naphthyridin-4-yl)oxy]-3-fluorophenyl]-2-(ethoxymethyl)-5-(4-fluorophenyl)-4-hydroxy-6-methylpyridine-3-carboxamide]	< 100 nM	< 100 nM	< 100 nM	–	–	–
CCOCc1nc(C)c(-c2ccc(F)cc2)c(O)c1C(=O)Nc1ccc(Oc2ccnc3cc(OC)cnc23)c(F)c1 [Compound 214, 2-(Ethoxymethyl)-N-[3-fluoro-4-[(7-methoxy-1,5-naphthyridin-4-yl)oxy]phenyl]-5-(4-fluorophenyl)-4-hydroxy-6-methylpyridine-3-carboxamide]	< 100 nM	< 100 nM	< 100 nM	–	–	–
COc1ccc2nccc(Oc3ccc(NC(=O)c4c(C)ncc(-c5ccc(F)cc5C)c4O)cc3)c2n1 [Compound 493, 5-(4-fluoro-2-methylphenyl)-4-hydroxy-N-[4-[(6-methoxy-1,5-naphthyridin-4-yl)oxy]phenyl]-2-methylpyridine-3-carboxamide]	< 100 nM	< 100 nM	< 100 nM	–	–	–
COc1nc2c(Oc3ccc(NC(=O)c4cn(C)c(C)c(-c5ccc(F)cc5)c4=O)cc3F)ccnc2cc1N [Compound 803, N-[4-[(7-amino-6-methoxy-1,5-naphthyridin-4-yl)oxy]-3-fluorophenyl]-5-(4-fluorophenyl)-1,6-dimethyl-4-oxopyridine-3-carboxamide]	–	–	–	< 100 nM	< 100 nM	< 100 nM
COc1cc2nccc(Oc3ccc(NC(=O)c4cn(CCF)c(C)c(-c5ccc(F)cc5C)c4=O)cc3F)c2nc1OC [Compound 801, N-[4-[(6,7-dimethoxy-1,5-naphthyridin-4-yl)oxy]-3-fluorophenyl]-1-(2-fluoroethyl)-5-(4-fluoro-2-methylphenyl)-6-methyl-4-oxopyridine-3-carboxamide]	< 100 nM	< 100 nM	< 100 nM	–	–	–
COc1cnc2c(Oc3ccc(NC(=O)c4cn(CCF)c(C)c(-c5ccc(F)cc5)c4=O)cc3F)ccnc2c1 [Compound 624, 1-(2-Fluoroethyl)-N-[3-fluoro-4-[(7-methoxy-1,5-naphthyridin-4-yl)oxy]phenyl]-5-(4-fluorophenyl)-6-methyl-4-oxopyridine-3-carboxamide]	< 100 nM	< 100 nM	< 100 nM	–	–	–
COc1cc2nccc(Oc3ccc(NC(=O)c4nnc(C)c(-c5ccc(F)cc5)c4SC)cc3F)c2nc1OC [Compound 602, N-[4-[(6,7-Dimethoxy-1,5-naphthyridin-4-yl)oxy]-3-fluorophenyl]-5-(4-fluorophenyl)-6-methyl-4-methylsulfanylpyridazine-3-carboxamide]	100 to 300 nM	100 to 300 nM	< 100 nM	–	–	–
COc1cc2nccc(Oc3ccc(NC(=O)c4cn(CCF)c(C)c(-c5ccc(F)cc5)c4=O)cc3F)c2nc1OC [Compound 622, N-[4-[(6,7-Dimethoxy-1,5-naphthyridin-4-yl)oxy]-3-fluorophenyl]-1-(2-fluoroethyl)-5-(4-fluorophenyl)-6-methyl-4-oxopyridine-3-carboxamide]	< 100 nM	< 100 nM	< 100 nM	–	–	–
COc1cc(F)ccc1-c1cn(CCF)c(C)c(C(=O)Nc2ccc(Oc3ccnc4cc(OC)c(OC)nc34)c(F)c2)c1=O [Compound 805, N-[4-[(6,7-dimethoxy-1,5-naphthyridin-4-yl)oxy]-3-fluorophenyl]-1-(2-fluoroethyl)-5-(4-fluoro-2-methoxyphenyl)-2-methyl-4-oxopyridine-3-carboxamide]	–	–	–	< 100 nM	< 100 nM	< 100 nM
Cc1cc(C)n(-c2ccc(F)cc2)c(=O)c1C(=O)Nc1ccc(Oc2ccnc3cc(C(C)CO)cnc23)c(F)c1 (stereo not drawn) [Compound 599, N-[3-Fluoro-4-[[7-(1-hydroxypropan-2-yl)-1,5-naphthyridin-4-yl]oxy]phenyl]-1-(4-fluorophenyl)-4,6-dimethyl-2-oxopyridine-3-carboxamide]	< 100 nM	< 100 nM	< 100 nM	–	–	–
COc1cnc2c(Oc3ccc(NC(=O)c4c(C)nc(C)c(-c5ccc(F)cc5F)c4O)cc3F)ccnc2c1 [Compound 210, 5-(2,4-Difluorophenyl)-N-[3-fluoro-4-[(7-methoxy-1,5-naphthyridin-4-yl)oxy]phenyl]-4-hydroxy-2,6-dimethylpyridine-3-carboxamide]	< 100 nM	< 100 nM	< 100 nM	–	–	–
COc1cnc2c(Oc3ccc(NC(=O)c4cn(CCF)c(C)c(-c5ccc(F)cc5C)c4=O)cc3F)ccnc2c1 [Compound 799, 1-(2-fluoroethyl)-N-[3-fluoro-4-[(7-methoxy-1,5-naphthyridin-4-yl)oxy]phenyl]-5-(4-fluoro-2-methylphenyl)-6-methyl-4-oxopyridine-3-carboxamide]	< 100 nM	< 100 nM	< 100 nM	–	–	–
COc1cc2nccc(Oc3ccc(NC(=O)c4c(C)n(CCF)cc(-c5ccc(F)c(C)c5)c4=O)cc3F)c2nc1OC [Compound 806, N-[4-[(6,7-dimethoxy-1,5-naphthyridin-4-yl)oxy]-3-fluorophenyl]-1-(2-fluoroethyl)-5-(4-fluoro-3-methylphenyl)-2-methyl-4-oxopyridine-3-carboxamide]	–	–	–	< 100 nM	< 100 nM	< 100 nM
COc1cc2nccc(Oc3ccc(NC(=O)c4cn(CCF)c(C)c(-c5ccc(F)cc5C)c4=O)cc3)c2nc1OC [Compound 800, N-[4-[(6,7-dimethoxy-1,5-naphthyridin-4-yl)oxy]phenyl]-1-(2-fluoroethyl)-5-(4-fluoro-2-methylphenyl)-6-methyl-4-oxopyridine-3-carboxamide]	< 100 nM	< 100 nM	< 100 nM	–	–	–
